pIC50: −log10 of the molar value. Where only a bound is given, the exact number is not on record here.

By IC50 is commonly meant the concentration that gives 50% inhibition. A word on the pIC50: it is the negative decadic logarithm of the IC50, by convention in mol/L.

One test has as its target T1, OX2 (Homo sapiens, UniProt O43614).
T1 sequence (O43614 1-444): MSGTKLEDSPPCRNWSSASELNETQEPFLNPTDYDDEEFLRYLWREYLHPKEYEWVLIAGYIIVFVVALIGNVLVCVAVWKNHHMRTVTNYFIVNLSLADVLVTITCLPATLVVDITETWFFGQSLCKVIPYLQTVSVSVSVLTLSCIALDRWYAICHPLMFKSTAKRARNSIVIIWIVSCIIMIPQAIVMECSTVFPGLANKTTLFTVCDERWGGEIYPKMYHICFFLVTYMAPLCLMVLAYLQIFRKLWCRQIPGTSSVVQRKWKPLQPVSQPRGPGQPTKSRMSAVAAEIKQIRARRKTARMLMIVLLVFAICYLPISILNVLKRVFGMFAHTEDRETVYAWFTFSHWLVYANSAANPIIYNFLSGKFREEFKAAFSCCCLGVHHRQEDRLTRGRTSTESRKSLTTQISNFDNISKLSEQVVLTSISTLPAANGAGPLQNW
The experiment in a line: Measurement of orexin receptor-binding ability ([125I]-OX-A, cell membranes, OX2). Particulars: OX2 (IC50) nM, membranes of recombinant CHO cells expressing OX2, 0.2 nM [125I]-OX-A. On the set-up: expressed in transfected cells; host or cells: CHO cells (membrane preparation). As to the method: 1. Measurement of Orexin Receptor-Binding Ability
The assay was carried out using a 96-well Wheat Germ Agglutinin Flash Plate (PerkinElmer). The volume in a single assay well was 100 ul, and the composition of the reaction solution was as follows:
25 mM HEPES (pH 7.5), 1 mM CaCl2, 4.5 mM MgCl2, 0.5% BSA (bovine serum albumin), 0.1% sodium azide, 0.05% Tween-20, and 0.2% DMSO.
Cell membranes were prepared from recombinant CHO cells that expressed OX2 or OX1. The cell membranes were used in an amount of 5 μg protein/assay. […] Finally, the radioactivity of each well was measured using a scintillation counter (TopCount, PerkinElmer).
In the case of `COCc1nc(C)ncc1OCC1(c2cccc(Cl)c2)CC1C(=O)Nc1ccc(F)cn1` (centres unmarked) [Example 222], the IC50 stood at 68 nM.
On the same count and under the same terms, the result for `COc1cc([C@]2(COc3cnc(C)nc3C)C[C@H]2C(=O)Nc2ccc(F)cn2)ccc1F` [Example 314] reads 173 nM.

The same test, now with this note: membranes of recombinant CHO cells expressing OX2, 0.2 nM [125I]-OX-A; read-out: OX2 (IC50).
As for `COCc1nc(C)ncc1OC[C@@]1(c2cccc(F)c2)C[C@H]1C(=O)Nc1cc(F)ccc1F` [Example 197, (1R,2S)-N-(2,5-difluorophenyl)-2-(3-fluorophenyl)-2-{[(4-methoxymethyl-2-methylpyrimidin-5-yl)oxy]methyl}cyclopropanecarboxamide], the pIC50 is 8.15.
`COCc1nc(C)ncc1OC[C@@]1(c2ccc(F)cc2)C[C@H]1C(=O)Nc1ccccn1` [Example 206]: the pIC50 is 7.57.
As to `COCc1nc(C)ncc1OC[C@@]1(c2ccc(F)cc2)C[C@H]1C(=O)Nc1cccc(F)c1` [Example 208], the pIC50 is 7.96.
Turning to `COCc1nc(C)ncc1OC[C@@]1(c2ccc(F)cc2)C[C@H]1C(=O)Nc1ccc(F)cc1F` [Example 209], the pIC50 was 7.32.
The same measure, in the same setting: the result for `COCc1nc(C)ncc1OC[C@@]1(c2ccc(F)cc2)C[C@H]1C(=O)Nc1cc(F)ccc1F` [Example 210] reads under 7.22; that for `COCc1nc(C)ncc1OC[C@@]1(c2ccc(F)c(F)c2)C[C@H]1C(=O)Nc1ccc(F)c(F)c1` [Example 214, (1R,2S)-N,2-bis(3,4-difluorophenyl)-2-{[(4-methoxymethyl-2-methylpyrimidin-5-yl)oxy]methyl}cyclopropanecarboxamide], 8.15.
On the same count and under the same terms, the result for `COCc1nc(C)ncc1OC[C@@]1(c2ccc(F)c(F)c2)C[C@H]1C(=O)Nc1cc(F)ccc1F` [Example 215] reads 7.92; that for `COCc1nc(C)ncc1OC[C@@]1(c2ccc(F)c(F)c2)C[C@H]1C(=O)Nc1ccc(F)cc1F` [Example 216, (1R,2S)-N-(2,4-difluorophenyl)-2-(3,4-difluorophenyl)-2-{[(4-methoxymethyl-2-methylpyrimidin-5-yl)oxy]methyl}cyclopropanecarboxamide], 8.15.
The same measure, in the same setting: next, `COCc1nc(C)ncc1OC[C@@]1(c2ccc(F)c(F)c2)C[C@H]1C(=O)Nc1cccc(F)c1F` [Example 217]: 7.68.
Take `COCc1nc(C)ncc1OC[C@@]1(c2cc(F)cc(F)c2)C[C@H]1C(=O)Nc1cc(C)c(F)cn1` [Example 220]: the pIC50 was 7.68.
In the case of `COCc1nc(C)ncc1OCC1(c2cccc(Cl)c2)CC1C(=O)Nc1ccc(Cl)cn1` (centres unmarked) [Example 223], the pIC50 is 7.47.
On the same count and under the same terms, next, `COCc1nc(C)ncc1OCC1(c2cccc(Cl)c2)CC1C(=O)Nc1ccc(F)cc1` (centres unmarked) [Example 224]: 7.57; `COCc1nc(C)ncc1OC[C@@]1(c2cccc(Cl)c2)C[C@H]1C(=O)Nc1cc(C)c(F)cn1` [Example 226, (1R,2S)-2-(3-chlorophenyl)-N-(5-fluoro-4-methylpyridin-2-yl)-2-{[(4-methoxymethyl-2-methylpyrimidin-5-yl)oxy]methyl}cyclopropanecarboxamide]: 8.15; `COCc1nc(C)ncc1OCC1(c2cccc(Cl)c2)CC1C(=O)Nc1ccc(C#N)cn1` (centres unmarked) [Example 227]: 7.85.
On the same count and under the same terms, the result for `COCCc1nc(C)ncc1OC[C@@]1(c2cccc(F)c2)C[C@H]1C(=O)Nc1ccccn1` [Example 228] reads 7.35.
Turning to `COCCc1nc(C)ncc1OC[C@@]1(c2cccc(F)c2)C[C@H]1C(=O)Nc1ccc(F)cc1` [Example 230], the pIC50 is 7.80.
Same read-out and setting: next, `COCc1nc(C)ncc1OC[C@@]1(c2cc(F)cc(OC)c2)C[C@H]1C(=O)Nc1ccc(F)cc1` [Example 231, (1R,2S)-2-(3-fluoro-5-methoxyphenyl)-N-(4-fluorophenyl)-2-{[(4-methoxymethyl-2-methylpyrimidin-5-yl)oxy]methyl}cyclopropanecarboxamide]: 8.15.
On to `COCc1nc(C)ncc1OC[C@@]1(c2cc(F)cc(OC)c2)C[C@H]1C(=O)Nc1ccc(F)cn1` [Example 233, (1R,2S)-2-(3-fluoro-5-methoxyphenyl)-N-(5-fluoropyridin-2-yl)-2-[(4-methoxymethyl-2-methylpyrimidin-5-yl)oxymethyl]cyclopropanecarboxamide], for which the pIC50 was 8.22.
`COCc1nc(C)ncc1OC[C@@]1(c2cc(F)cc(OC)c2)C[C@H]1C(=O)Nc1ccccn1` [Example 235, (1R,2S)-2-(3-fluoro-5-methoxyphenyl)-2-[(4-methoxymethyl-2-methylpyrimidin-5-yl)oxymethyl]-N-(pyridin-2-yl)cyclopropanecarboxamide]: the pIC50 is 8.22.
The same measure, in the same setting: next, `COCc1nc(C)ncc1OC[C@@]1(c2ccc(F)c(OC)c2)C[C@H]1C(=O)Nc1ccc(F)cc1` [Example 237]: 7.51; `COCc1nc(C)ncc1OC[C@@]1(c2ccc(F)c(OC)c2)C[C@H]1C(=O)Nc1ccc(F)c(F)c1` [Example 238]: 7.82.
On the same count and under the same terms, next, `COCc1nc(C)ncc1OC[C@@]1(c2ccc(F)c(OC)c2)C[C@H]1C(=O)Nc1cc(C)c(F)cn1` [Example 239, (1R,2S)-2-(4-fluoro-3-methoxyphenyl)-N-(5-fluoro-4-methylpyridin-2-yl)-2-{[(4-methoxymethyl-2-methylpyrimidin-5-yl)oxy]methyl}cyclopropanecarboxamide]: 8.15; `CCc1nc(C)ncc1OC[C@@]1(c2ccc(F)cc2)C[C@H]1C(=O)Nc1cccc(F)c1` [Example 249]: 7.77; `CCc1nc(C)ncc1OC[C@@]1(c2ccc(F)cc2)C[C@H]1C(=O)Nc1ccc(F)cc1` [Example 250]: 7.85.
The same measure, in the same setting: next, `COc1cc(F)cc(C2(COc3cnc(C)nc3C)CC2C(=O)Nc2ccccn2)c1` (centres unmarked) [Example 251]: 7.52; `COc1cc(F)cc(C2(COc3cnc(C)nc3C)CC2C(=O)Nc2ccc(F)cc2)c1` (centres unmarked) [Example 252]: 7.74; `COc1cc(F)cc(C2(COc3cnc(C)nc3C)CC2C(=O)Nc2ccc(C#N)cn2)c1` (centres unmarked) [Example 253]: 7.39.
For `COc1cc(F)cc([C@]2(COc3cnc(C)nc3C)C[C@H]2C(=O)Nc2ccc(Cl)cn2)c1` [Example 255], the pIC50 was 7.57.
Consider `COc1cc([C@]2(COc3cnc(C)nc3C)C[C@H]2C(=O)Nc2ccc(Cl)cn2)ccc1F` [Example 257], for which the pIC50 was 7.08.
As for `COc1cc([C@]2(COc3cnc(C)nc3C)C[C@H]2C(=O)Nc2cc(C)c(F)cn2)ccc1F` [Example 258], the pIC50 was under 7.22.
On the same count and under the same terms, the result for `COc1cc([C@]2(COc3cnc(C)nc3C)C[C@H]2C(=O)Nc2ccccn2)ccc1F` [Example 259] reads under 7.22; that for `Cc1ncc(OC[C@@]2(c3ccccc3)C[C@H]2c2nc3cnccc3[nH]2)c(C)n1` [Example 304], 7.05; that for `Cc1ncc(OC[C@@]2(c3cc(F)cc(F)c3)C[C@H]2c2nc3ncc(Cl)cc3[nH]2)c(C)n1` [Example 307], 7.48.
Turning to `Cc1ncc(OC[C@@]2(c3cc(F)cc(F)c3)C[C@H]2c2nc3ncccc3[nH]2)c(C)n1` [Example 308], the pIC50 is 7.51.
For the compound `CCc1nc(C)ncc1OC[C@@]1(c2cccc(F)c2)C[C@H]1c1nc2cnccc2[nH]1` [Example 309], the pIC50 is 8.00.
The same measure, in the same setting: next, `COc1cc([C@]2(COc3cnc(C)nc3C)C[C@H]2C(=O)Nc2ccc(F)cc2)ccc1F` [Example 315]: 6.68.

For the origin of these results see patent US8268848B2, “Cyclopropane compound” (Eisai R&D Management Co., Ltd., priority 2010, dated 2012).
